# Assays:
# [1] = design: species or system Sprague-Dawley rat; settings: rat, in vivo, iv
# bovine serum albumin = bovine serum albumin (Bos taurus, UniProt P02769); experiment: Serum protein binding by gel filtration chromatography; format: in vitro ADME; settings: GFC after incubation in bovine serum albumin solution at 37°C for 4 h
# [2] = in serum; cited from earlier work
# [3] = conventional NIR fluorophores; cited from earlier work
# [4] = Optical properties of NIR fluorophores in 100% serum, pH 7.4; format: physicochemical
# [5] = Stability in warm serum, 24 h, 37°C; format: in vitro ADME; settings: 100% serum, pH 7.4, 24 h
# Sequence of bovine serum albumin (P02769 25-607): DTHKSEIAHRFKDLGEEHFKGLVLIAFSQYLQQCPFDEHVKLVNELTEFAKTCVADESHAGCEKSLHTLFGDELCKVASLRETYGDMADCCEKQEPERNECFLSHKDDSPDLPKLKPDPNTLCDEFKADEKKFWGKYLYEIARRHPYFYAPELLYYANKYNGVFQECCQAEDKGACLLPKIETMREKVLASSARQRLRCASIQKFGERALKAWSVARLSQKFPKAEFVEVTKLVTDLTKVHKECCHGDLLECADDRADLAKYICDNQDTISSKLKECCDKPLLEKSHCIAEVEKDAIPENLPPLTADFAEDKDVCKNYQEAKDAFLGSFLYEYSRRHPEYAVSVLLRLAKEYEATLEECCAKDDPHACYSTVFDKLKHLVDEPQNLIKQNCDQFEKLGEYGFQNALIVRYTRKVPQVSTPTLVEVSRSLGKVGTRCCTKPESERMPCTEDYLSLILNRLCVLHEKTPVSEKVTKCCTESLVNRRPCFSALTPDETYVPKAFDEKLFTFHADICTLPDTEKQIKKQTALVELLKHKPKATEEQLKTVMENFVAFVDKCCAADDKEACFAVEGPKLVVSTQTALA
SMILES,clearance route seen by dual-channel imaging [1],Serum protein binding (bovine serum albumin),molar extinction coefficient (ε) [2],quantum yield (QY) [2] [%],LogD at pH 7.4 [3],Absorbance Maximum [4] [nm],Emission Maximum [4] [nm],Extinction Coefficient [4],Quantum Yield [4] [%],Stokes Shift [4] [nm],"Stability (%) at 24 h, 37°C [5] [%]"
CC1(C)C(/C=C/C=C/C=C/C=C2\N(CCCCS(=O)(=O)[O-])c3ccc4ccccc4c3C2(C)C)=[N+](CCCCS(=O)(=O)[O-])c2ccc3ccccc3c21.[Na+] [ICG],extracted from blood by the liver and excreted into bile,significant serum protein binding,"121,000 M^−1cm^−1",9.3,–,–,–,–,–,–,–
CC1(C)C(=CC=C2CCCC(C=CC3=[N+](CCCCCC(=O)[O-])c4ccc(S(=O)(=O)[O-])cc4C3(C)C)=C2Oc2ccc(S(=O)(=O)[O-])cc2)N(CCCCS(=O)(=O)[O-])c2ccc(S(=O)(=O)[O-])cc21.[Na+].[Na+].[Na+].[Na+] [IRDye 800CW],–,–,–,–,2.51,–,–,–,–,–,–
CN(C)c1ccc2nc3ccc(=[N+](C)C)cc-3sc2c1 [Methylene Blue],–,–,–,–,–,665,685,"71,200 M^−1cm^−1",3.8,20,99
CC1(C)C(/C=C/C(=C/C=C2/N(CCC[N+](C)(C)C)c3ccc(S(=O)(=O)[O-])cc3C2(C)C)c2ccc(CCC(=O)[O-])cc2)=[N+](CCC[N+](C)(C)C)c2ccc(S(=O)(=O)[O-])cc21 [ZW700-1c],–,–,–,–,–,646,663,"199,000 M^−1cm^−1",19.5,17,99

# Source: article PMC4684479 (Molecular imaging and biology : MIB : the official …, 2016)
